This note sets out measurements from patent publication US20160106102A1, “KNOWN AND NEW HETEROCYCLIC COMPOUNDS AS PEST CONTROL AGENTS” (BAYER CROPSCIENCE AKTIENGESELLSCHAFT, priority 2013, published 2016).

One data set has as its system Myzus persicae. Put plainly: Myzus persicae - sachet test. The class given is in vivo. The note with it: 100% = all animals killed. An outline of the steps: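 Active ingredient dissolved with 2% N-methylpyrrolidone and 2% diacetone alcohol, diluted in water, then pipetted into nutrient medium. Plate sealed and paired with a plate carrying green peach aphids. Kill in % scored after the set time (100% = all dead, 0% = none dead).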

The nature of data set [1]: log P determination by LC-MS in the acidic range. To be noted: LC-MS in the acidic range. The class given is physicochemical. From the text:
The LC-MS determination in the acidic range is effected at pH 2.7 using 0.1% aqueous formic acid and acetonitrile (contains 0.1% formic acid) as eluents, linear gradient from 10% acetonitrile to 95% acetonitrile. Alternatively, the determination is effected in the acidic range at pH 2.3 using 0.1% aqueous phosphoric acid and acetonitrile as eluents; linear gradient from 10% acetonitrile to 95% acetonitrile.

Setting [2] is: application rate of 6 ppm in nutrient medium.
[3] abbreviates: application rate of 30 ppm in nutrient medium.

As for `Cc1cc(NC(=O)c2cccnc2)nn1Cc1cn2cc(Cl)ccc2n1` [Compound I-1-160], the “efficacy (kill in %)” value in the data set on Myzus persicae (setting [2]) and in the data set on Myzus persicae (setting [3]) was 100% throughout. Moreover, the “log P (acid)” value in data set [1] is given as 1.03.
Regarding `Cc1cc(NC(=O)c2cccnc2)nn1C(=O)N1CCCC1` [Compound I-1-161], the “efficacy (kill in %)” value in the data set with Myzus persicae (setting [2]) was 80%; in the data set with Myzus persicae (setting [3]) it was 100%. In data set [1], the “log P (acid)” value amounted to 1.29.
On to `Cc1cc(NC(=O)c2cccnc2)nn1S(=O)(=O)N1CCC(C)CC1` [Compound I-1-162], for which the “efficacy (kill in %)” value in the data set with Myzus persicae (setting [2]) and with Myzus persicae (setting [3]) was 100% each time. The “log P (acid)” value in data set [1] was 2.51.
With `CSCCCNC(=O)n1nc(NC(=O)c2cccnc2)cc1C` [Compound I-1-165], the “efficacy (kill in %)” value with Myzus persicae (setting [2]) and in the data set on Myzus persicae (setting [3]) was 100% each time. The “log P (acid)” value in data set [1] is on record as 1.7.
In the case of `Cc1cc(NC(=O)c2cccnc2)nn1C(=O)NCCOc1ccccc1` [Compound I-1-168], the “efficacy (kill in %)” value in the data set on Myzus persicae (setting [2]) and in the data set with Myzus persicae (setting [3]) was 100% in each case. Also, the “log P (acid)” value in data set [1] came to 2.18.
For the compound `Cc1cc(NC(=O)c2cccnc2)nn1C(=O)NCCOc1c(F)cccc1F` [Compound I-1-171], the “efficacy (kill in %)” value in the data set with Myzus persicae (setting [2]) is 80%; with Myzus persicae (setting [3]), 100%. Also, the “log P (acid)” value in data set [1] came to 2.21.
On to `Cc1cc(N(C)C(=O)c2cccnc2)nn1CC1CC1` [Compound I-1-177], for which the “efficacy (kill in %)” value with Myzus persicae (setting [3]) is listed as 100%. The “log P (acid)” value in data set [1] was 1.27.
On the same counts, the results for `Cc1c(C#N)c(NC(=O)c2cccnc2)nn1Cc1ncccn1` [Compound I-1-194] are 100% and 0.63.
As for `Cc1cc(NC(=O)c2cccnc2)nn1Cc1ncc(Cl)cn1` [Compound I-1-195], the “efficacy (kill in %)” value in the data set with Myzus persicae (setting [2]) and with Myzus persicae (setting [3]) was 100% in each case. The “log P (acid)” value in data set [1] was determined as 1.23.
In the case of `O=C(Nc1cc(Cl)n(Cc2ncccn2)n1)c1cccnc1` [Compound I-1-197], the “efficacy (kill in %)” value in the data set with Myzus persicae (setting [2]) and in the data set on Myzus persicae (setting [3]) was 100% each time. In data set [1], the “log P (acid)” value was 1.04.
As to `Cc1cn(CC#N)nc1NC(=O)c1cccnc1` [Compound I-1-199], in the data set with Myzus persicae (setting [3]), the “efficacy (kill in %)” value came to 100%. Further, the “log P (acid)” value in data set [1] is given as 0.37.
For the compound `Cc1cc(NC(=O)c2cccnc2)nn1-c1ccc(Cl)cc1Cl` [Compound I-1-207], the “efficacy (kill in %)” value with Myzus persicae (setting [2]) and in the data set on Myzus persicae (setting [3]) was 100% each time. Also, the “log P (acid)” value in data set [1] came to 2.36.
In the case of `Cc1cc(C)cc(-n2nc(NC(=O)c3cccnc3)cc2C)c1` [Compound I-1-208], in the data set with Myzus persicae (setting [3]), the “efficacy (kill in %)” value came to 100%. In addition, the “log P (acid)” value in data set [1] amounted to 2.4.
Regarding `Cc1cc(NC(=O)c2cccnc2)nn1-c1ccc(Cl)cc1` [Compound I-1-209], the “efficacy (kill in %)” value in the data set on Myzus persicae (setting [2]) is given as 80%; in the data set with Myzus persicae (setting [3]), 100%. Besides, in data set [1], the “log P (acid)” value is 2.09.
Regarding `Cc1cc(NC(=O)c2cccnc2)nn1-c1ccccc1Cl` [Compound I-1-213], in the data set on Myzus persicae (setting [3]), the “efficacy (kill in %)” value was 100%. In addition, in data set [1], the “log P (acid)” value is given as 1.86.
As to `Cc1cc(NC(=O)c2cccnc2)nn1-c1cccc(C#N)c1` [Compound I-1-217], the “efficacy (kill in %)” value with Myzus persicae (setting [2]) and with Myzus persicae (setting [3]) was 100% throughout. Besides, in data set [1], the “log P (acid)” value was 1.59.
For the compound `Cc1cc(NC(=O)c2cccnc2)nn1C(C)(C)C#N` [Compound I-1-219], the “efficacy (kill in %)” value in the data set with Myzus persicae (setting [2]) and in the data set on Myzus persicae (setting [3]) was 100% in each case. In data set [1], the “log P (acid)” value is on record as 1.31.
`Cc1cc(NC(=Nc2ccc(Cl)cc2Cl)c2cccnc2)nn1C` [Compound I-1-232]: in the data set with Myzus persicae (setting [3]), the “efficacy (kill in %)” value is on record as 100%. Further, the “log P (acid)” value in data set [1] came to 1.77.
For the compound `Cc1cc(NC(=O)c2cccnc2)nn1C[S+]([O-])c1ncccn1` (centres unmarked) [Compound I-1-235], the “efficacy (kill in %)” value came out at 80% in the data set on Myzus persicae (setting [2]) and 100% with Myzus persicae (setting [3]). Besides, the “log P (acid)” value in data set [1] was found to be 0.5.
On to `Cc1cc(NC(=O)c2cccnc2)nn1CS(=O)(=O)c1ncccn1` [Compound I-1-236], for which the “efficacy (kill in %)” value in the data set on Myzus persicae (setting [2]) and in the data set on Myzus persicae (setting [3]) was 100% throughout. Moreover, the “log P (acid)” value in data set [1] worked out at 0.74.
Turning to `Cc1cc(NC(=O)c2cccnc2)nn1CC=C(Cl)Cl` [Compound I-1-238], the “efficacy (kill in %)” value in the data set on Myzus persicae (setting [2]) and in the data set with Myzus persicae (setting [3]) was 100% each time. In data set [1], the “log P (acid)” value is reported as 1.83.
On to `CSCn1nc(NC(=O)c2cccnc2)cc1C` [Compound I-1-241], for which the “efficacy (kill in %)” value in the data set with Myzus persicae (setting [2]) and with Myzus persicae (setting [3]) was 100% each time. Further, the “log P (acid)” value in data set [1] was 1.17.
For the compound `Cc1cc(NC(=O)c2cccnc2)nn1CC(=O)Cc1ccccc1Cl` [Compound I-1-247], the “efficacy (kill in %)” value in the data set on Myzus persicae (setting [2]) and in the data set with Myzus persicae (setting [3]) was 100% in each case. In data set [1], the “log P (acid)” value worked out at 1.92.
Turning to `Cc1cc(NC(=O)c2ccnnc2)nn1-c1ccccn1` [Compound I-1-249], in the data set with Myzus persicae (setting [3]), the “efficacy (kill in %)” value stood at 100%. Besides, in data set [1], the “log P (acid)” value stood at 1.83.
On the same counts, the results for `CNS(=O)(=O)n1nc(NC(=O)c2cccnc2)cc1C` [Compound I-1-257] are 100% and 0.55.
`Cc1cc(NC(=O)c2cccnc2)nn1C(=O)N(C)S(=O)(=O)c1ccccc1` [Compound I-1-263]: the “efficacy (kill in %)” value in the data set on Myzus persicae (setting [2]) and with Myzus persicae (setting [3]) was 100% in each case. Besides, the “log P (acid)” value in data set [1] came to 2.13.
For `Cc1cc(N(CC(F)F)C(=O)c2cccnc2)nn1Cc1ncccn1` [Compound I-1-265], the “efficacy (kill in %)” value with Myzus persicae (setting [2]) and in the data set on Myzus persicae (setting [3]) was 100% in each case. Further, the “log P (acid)” value in data set [1] came out at 1.19.
With `O=C(Nc1nn(Cc2ncccn2)cc1F)c1cccnc1` [Compound I-1-267], the “efficacy (kill in %)” value with Myzus persicae (setting [3]) came out at 100%. For the same compound, the “log P (acid)” value in data set [1] turned out to be 0.42.
In the case of `N#Cc1cc(NC(=O)c2cccnc2)nn1Cc1ncccn1` [Compound I-1-269], the “efficacy (kill in %)” value in the data set with Myzus persicae (setting [2]) and with Myzus persicae (setting [3]) was 100% throughout. Moreover, in data set [1], the “log P (acid)” value came to 1.0.
As for `CSc1c(C#N)c(NC(=O)c2cccnc2)nn1C` [Compound I-1-270], the “efficacy (kill in %)” value in the data set with Myzus persicae (setting [3]) is on record as 80%. Also, the “log P (acid)” value in data set [1] came out at 0.96.
The corresponding values for `O=C(Nc1cc(Cl)n(-c2ccccc2)n1)c1cccnc1` [Compound I-1-274] are 100% and 2.1.
As for `Cc1cc(NC(=O)c2cncc(Cl)c2)nn1Cc1ncccn1` [Compound I-1-276], the “efficacy (kill in %)” value in the data set on Myzus persicae (setting [2]) and with Myzus persicae (setting [3]) was 100% in each case. For the same compound, the “log P (acid)” value in data set [1] is given as 1.4.
For `CCS(=O)(=O)n1nc(NC(=O)c2cccnc2)cc1C` [Compound I-1-278], the “efficacy (kill in %)” value in the data set on Myzus persicae (setting [3]) was 100%. In addition, in data set [1], the “log P (acid)” value came out at 1.29.
As to `Cc1cc(NC(=O)c2cccnc2)nn1S(=O)(=O)c1cccnc1` [Compound I-1-280], the entries for the “efficacy (kill in %)” value in the data set on Myzus persicae (setting [2]) and in the data set with Myzus persicae (setting [3]) were 80% and 100%, respectively. Further, the “log P (acid)” value in data set [1] was 1.45.
For `Cc1noc(Cn2nc(NC(=O)c3cccnc3)cc2C)n1` [Compound I-1-284], the “efficacy (kill in %)” value with Myzus persicae (setting [2]) and with Myzus persicae (setting [3]) was 100% in each case. The “log P (acid)” value in data set [1] turned out to be 0.92.
As for `CCNC(=O)n1nc(NC(=O)c2cccnc2)cc1C` [Compound I-1-288], the “efficacy (kill in %)” value in the data set with Myzus persicae (setting [2]) and in the data set with Myzus persicae (setting [3]) was 100% throughout. Also, the “log P (acid)” value in data set [1] was found to be 1.24.
As for `CCN(CC)C(=O)n1nc(NC(=O)c2cccnc2)cc1C` [Compound I-1-290], the “efficacy (kill in %)” value with Myzus persicae (setting [2]) and in the data set on Myzus persicae (setting [3]) was 100% each time. Besides, the “log P (acid)” value in data set [1] is 2.31.
`Cc1cc(NC(=O)c2cccnc2)nn1CC(F)(F)c1ccc(F)cn1` [Compound I-1-294]: the “efficacy (kill in %)” value in the data set with Myzus persicae (setting [3]) was determined as 100%. Also, the “log P (acid)” value in data set [1] came out at 1.77.
With `Cc1cc(NC(=O)c2cccnc2)nn1Cc1nnc(-c2ccccc2)o1` [Compound I-1-299], the “efficacy (kill in %)” value in the data set with Myzus persicae (setting [2]) and in the data set on Myzus persicae (setting [3]) was 100% each time. Also, in data set [1], the “log P (acid)” value worked out at 1.57.
With `Cc1cc(NC(=O)c2cccnc2)nn1Cc1nc(-c2ccccc2)no1` [Compound I-1-300], the “efficacy (kill in %)” value with Myzus persicae (setting [2]) and with Myzus persicae (setting [3]) was 100% in each case. Also, the “log P (acid)” value in data set [1] was 2.01.
In the case of `Cc1cc(NC(=O)c2cccnc2)nn1Cc1ccc(Cl)c(Cl)n1` [Compound I-1-301], the “efficacy (kill in %)” value in the data set with Myzus persicae (setting [3]) stood at 100%. Besides, in data set [1], the “log P (acid)” value was 2.06.
In the case of `Cc1cc(NC(=O)c2cccnc2)nn1Cc1csc(C(F)(F)F)n1` [Compound I-1-302], the “efficacy (kill in %)” value in the data set on Myzus persicae (setting [2]) and in the data set on Myzus persicae (setting [3]) was 100% throughout. Also, the “log P (acid)” value in data set [1] was 1.93.
For the compound `Cc1cc(N(Cc2nc(-c3ccccc3)no2)C(=O)c2cccnc2)nn1Cc1nc(-c2ccccc2)no1` [Compound I-1-305], in the data set on Myzus persicae (setting [3]), the “efficacy (kill in %)” value was found to be 100%. The “log P (acid)” value in data set [1] was 3.26.
On the same counts, the results for `Cc1cc(NC(=O)c2cccnc2)nn1C=C(F)c1ccc(Cl)cn1` [Compound I-1-306] are 100% and 2.31.
For the compound `Cc1cc(NC(=O)c2cccnc2)nn1C(=O)NC(C)C(F)(F)F` (centres unmarked) [Compound I-1-307], the “efficacy (kill in %)” value with Myzus persicae (setting [2]) and in the data set on Myzus persicae (setting [3]) was 100% each time. In data set [1], the “log P (acid)” value was 1.89.
Take `Cc1cc(NC(=O)c2cccnc2)nn1C(=O)NCCS(C)(=O)=O` [Compound I-1-309]: the “efficacy (kill in %)” value with Myzus persicae (setting [2]) and with Myzus persicae (setting [3]) was 100% throughout. In data set [1], the “log P (acid)” value amounted to 0.97.
